According to patent publication US10618918B2, “Substituted boronic acids as antimicrobials” (priority 2015, dated 2020):
pKi: −log10 of the molar value.

How the values were obtained:
KP1004 KPC-2 [1] = experiment: Biapenem potentiation (MPC@1), strain KP1004 KPC-2; assay type: cell-based; conditions: minimum BLI concentration inhibiting growth with biapenem 1 μg/mL; tested up to 40 μg/mL
Procedure: (§1) Biapenem was present in the test medium at 1 μg/mL. […] Table 3 summarizes the BLI potency of biapenem potentiation (MPC@1) for two strains overexpressing class A (KPC) and class D (OXA-48) carbapenemases. Biapenem MIC for each strain is also shown.

KP1086 OXA-48 = experiment: Biapenem potentiation (MPC@1), strain KP1086 OXA-48; assay type: cell-based; conditions: minimum BLI concentration inhibiting growth with biapenem 1 μg/mL; tested up to 40 μg/mL
Procedure: as §1

AB1053 OXA-72 = experiment: Meropenem potentiation (MPC@8), strain AB1053 OXA-72; assay type: cell-based, Acinetobacter baumannii; conditions: minimum BLI concentration inhibiting growth with meropenem 8 μg/mL; tested up to 20 μg/mL
AB1054 OXA-23 = experiment: Meropenem potentiation (MPC@8), strain AB1054 OXA-23; assay type: cell-based, Acinetobacter baumannii; conditions: minimum BLI concentration inhibiting growth with meropenem 8 μg/mL; tested up to 20 μg/mL
[2] = molecular target: T1, purified class A, C and D enzymes (β-lactamases) (Acinetobacter baumannii, UniProt Q9L4P2); experiment: biochemical; assay type: biochemical; conditions: purified OXA-23; nitrocefin (NCF) as reporter substrate
T1 construct: rows headed: Ki (OXA-23, NCF), uM; other: purified OXA-23; nitrocefin (NCF) as reporter substrate
T1 sequence (Q9L4P2 whole entry): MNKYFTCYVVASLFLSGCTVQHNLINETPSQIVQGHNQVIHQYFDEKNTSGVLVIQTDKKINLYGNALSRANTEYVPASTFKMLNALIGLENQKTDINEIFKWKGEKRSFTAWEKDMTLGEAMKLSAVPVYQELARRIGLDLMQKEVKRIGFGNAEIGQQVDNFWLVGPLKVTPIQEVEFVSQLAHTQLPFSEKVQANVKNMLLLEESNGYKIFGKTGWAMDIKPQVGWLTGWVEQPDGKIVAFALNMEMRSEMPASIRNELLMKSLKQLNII

[3] = molecular target: purified class A, C and D enzymes (β-lactamases) (Enterobacter cloacae, UniProt P05364); experiment: biochemical; assay type: biochemical
Sequence of purified class A, C and D enzymes (β-lactamases) (Enterobacter cloacae, UniProt P05364) (P05364 21-381): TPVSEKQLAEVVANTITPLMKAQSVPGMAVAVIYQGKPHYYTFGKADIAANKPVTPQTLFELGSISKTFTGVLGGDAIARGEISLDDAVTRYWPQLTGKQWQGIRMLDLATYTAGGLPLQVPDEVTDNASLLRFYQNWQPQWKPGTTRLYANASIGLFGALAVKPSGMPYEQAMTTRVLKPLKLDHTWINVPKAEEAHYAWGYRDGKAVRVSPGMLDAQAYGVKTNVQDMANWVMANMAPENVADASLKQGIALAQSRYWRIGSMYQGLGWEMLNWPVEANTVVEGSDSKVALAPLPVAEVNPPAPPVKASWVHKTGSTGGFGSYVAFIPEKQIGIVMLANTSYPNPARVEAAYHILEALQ

[4] = molecular target: purified class A, C and D enzymes (β-lactamases) (Escherichia coli, UniProt Q9L5C7); experiment: biochemical; assay type: biochemical; conditions: purified CTX-M-14; nitrocefin (NCF) as reporter substrate
Sequence of purified class A, C and D enzymes (β-lactamases) (Escherichia coli, UniProt Q9L5C7) (Q9L5C7 entry or part of it): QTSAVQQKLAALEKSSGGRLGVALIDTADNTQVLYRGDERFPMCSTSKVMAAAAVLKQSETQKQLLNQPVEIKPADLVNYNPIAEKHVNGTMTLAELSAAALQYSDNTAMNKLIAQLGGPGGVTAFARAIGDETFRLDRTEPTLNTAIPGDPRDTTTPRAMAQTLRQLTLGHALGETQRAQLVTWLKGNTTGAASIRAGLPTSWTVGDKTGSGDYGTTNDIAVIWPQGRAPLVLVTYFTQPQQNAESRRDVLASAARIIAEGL

[5] = molecular target: purified class A, C and D enzymes (β-lactamases) (Klebsiella pneumoniae, UniProt Q6XEC0); experiment: biochemical; assay type: biochemical; conditions: purified OXA-48; nitrocefin (NCF) as reporter substrate
[6] = molecular target: purified class A, C and D enzymes (β-lactamases) (Klebsiella pneumoniae, UniProt Q9F663); experiment: biochemical; assay type: biochemical; conditions: purified KPC-2; nitrocefin (NCF) as reporter substrate
[7] = molecular target: T2, purified class A, C and D enzymes (β-lactamases) (Pseudomonas aeruginosa, UniProt P24735); experiment: biochemical; assay type: biochemical
T2 construct: rows headed: Ki (Pa-AmpC, NCF), uM; other: purified Pa-AmpC; nitrocefin (NCF) as reporter substrate
T2 sequence (P24735 whole entry): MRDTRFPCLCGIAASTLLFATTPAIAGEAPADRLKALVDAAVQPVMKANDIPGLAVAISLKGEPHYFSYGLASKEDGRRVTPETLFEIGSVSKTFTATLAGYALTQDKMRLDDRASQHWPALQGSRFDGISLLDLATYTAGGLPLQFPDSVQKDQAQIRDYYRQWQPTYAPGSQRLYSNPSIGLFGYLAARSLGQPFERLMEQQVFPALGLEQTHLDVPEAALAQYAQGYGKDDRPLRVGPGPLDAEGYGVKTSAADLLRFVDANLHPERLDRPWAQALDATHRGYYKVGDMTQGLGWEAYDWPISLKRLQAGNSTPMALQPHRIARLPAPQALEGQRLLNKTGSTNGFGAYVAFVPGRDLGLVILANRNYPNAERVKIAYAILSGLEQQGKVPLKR

ECL1002 = experiment: Aztreonam potentiation (MPC@4), strain ECL1002; conditions: minimum BLI concentration inhibiting growth with aztreonam 4 μg/mL; tested up to 40 μg/mL
ec308 SHV-5 = experiment: Aztreonam potentiation (MPC@4), strain ec308 SHV-5; conditions: minimum BLI concentration inhibiting growth with aztreonam 4 μg/mL; tested up to 40 μg/mL
ec302 TEM-10 = experiment: Aztreonam potentiation (MPC@4), strain ec302 TEM-10; conditions: minimum BLI concentration inhibiting growth with aztreonam 4 μg/mL; tested up to 40 μg/mL
KP1004 KPC-2 [8] = experiment: Aztreonam potentiation (MPC@4), strain KP1004 KPC-2; conditions: minimum BLI concentration inhibiting growth with aztreonam 4 μg/mL; tested up to 40 μg/mL
EC1010 CMY-6 = experiment: Aztreonam potentiation (MPC@4), strain EC1010 CMY-6; conditions: minimum BLI concentration inhibiting growth with aztreonam 4 μg/mL; tested up to 40 μg/mL
KP1010 SHV-12 = experiment: Aztreonam potentiation (MPC@4), strain KP1010 SHV-12; conditions: minimum BLI concentration inhibiting growth with aztreonam 4 μg/mL; tested up to 40 μg/mL
KP1009 CTX-M-15 = experiment: Aztreonam potentiation (MPC@4), strain KP1009 CTX-M-15; conditions: minimum BLI concentration inhibiting growth with aztreonam 4 μg/mL; tested up to 40 μg/mL
KP1005 CTX-M-14 = experiment: Tigemonam potentiation (MPC@4), strain KP1005 CTX-M-14; conditions: minimum BLI concentration inhibiting growth with tigemonam 4 μg/mL; tested up to 40 μg/mL

| SMILES | BPM MPC1 KP1004 KPC-2 (KP1004 KPC-2 [1]) | BPM MPC1 OXA-48 KP1086 (KP1086 OXA-48) | MPM MPC8 AB1053 OXA-72 (AB1053 OXA-72) | MPM MPC8 AB1054 OXA-23 (AB1054 OXA-23) | pKi [2] | Ki (P99, NCF), uM [3] | Ki (CTX-M-14, NCF), uM [4] | Ki (OXA-48, NCF), uM [5] | Ki (KPC-2, NCF), uM [6] | pKi [7] | AZT MPC4 ECL1002 (ECL1002) | AZT MPC4 SHV-5 ec308 (ec308 SHV-5) | AZT MPC4 TEM-10 ec302 (ec302 TEM-10) | AZT MPC4 KPC-2 KP1004 (KP1004 KPC-2 [8]) | AZT MPC4 CMY-6 EC1010 (EC1010 CMY-6) | AZT MPC4 SHV-12 KP1010 (KP1010 SHV-12) | AZT MPC4 CTX-M-15 KP1009 (KP1009 CTX-M-15) | TIG MPC4 CTX-M-14 KP1005 (KP1005 CTX-M-14) |
| --- | --- | --- | --- | --- | --- | --- | --- | --- | --- | --- | --- | --- | --- | --- | --- | --- | --- | --- |
| CS(=O)(=O)Nc1ccc2c(c1C(=O)[O-])O[B-](O)(O)CC2.[Na+].[Na+] [Compound 51, Disodium; 4,4-dihydroxy-8-(methanesulfonamido)-5-oxa-4-boranuidabicyclo[4.4.0]deca-1(6),7,9-triene-7-carboxylate] | X (X = MPC@1 ≤ 5 μg/mL) | X (X = MPC@1 ≤ 5 μg/mL) | Z (Z = MPC@1 > 20 μg/mL) | Z (Z = MPC@1 > 20 μg/mL) | > 7.00 | X (key: X = Ki ≤ 0.1 μM; Y = 0.1 μM < Ki ≤ 1 μM; Z = Ki > 1 μM) | X (X = Ki ≤ 0.1 μM) | X (X = Ki ≤ 0.1 μM) | X (X = Ki ≤ 0.1 μM) | > 7.00 | Z (Z = MPC@4 > 20 μg/mL) | X (X = MPC@4 ≤ 5 μg/mL) | X (X = MPC@4 ≤ 5 μg/mL) | Y (Y = 5 μg/mL < MPC@4 ≤ 20 μg/mL) | Y (Y = 5 μg/mL < MPC@4 ≤ 20 μg/mL) | X (X = MPC@4 ≤ 5 μg/mL) | Y (Y = 5 μg/mL < MPC@4 ≤ 20 μg/mL) | Z (Z = MPC@4 > 20 μg/mL) |
| NS(=O)(=O)Nc1ccc2c(c1C(=O)[O-])O[B-](O)(O)CC2.[Na+].[Na+] [Compound 52, Disodium; 4,4-dihydroxy-8-(sulfamoylamino)-5-oxa-4-boranuidabicyclo[4.4.0]deca-1(6),7,9-triene-7-carboxylate] | X (X = MPC@1 ≤ 5 μg/mL) | X (X = MPC@1 ≤ 5 μg/mL) | Z (Z = MPC@1 > 20 μg/mL) | Z (Z = MPC@1 > 20 μg/mL) | 6.00 to 7.00 | X (key: X = Ki ≤ 0.1 μM; Y = 0.1 μM < Ki ≤ 1 μM; Z = Ki > 1 μM) | X (X = Ki ≤ 0.1 μM) | X (X = Ki ≤ 0.1 μM) | X (X = Ki ≤ 0.1 μM) | > 7.00 | X (X = MPC@4 ≤ 5 μg/mL) | Y (Y = 5 μg/mL < MPC@4 ≤ 20 μg/mL) | Y (Y = 5 μg/mL < MPC@4 ≤ 20 μg/mL) | X (X = MPC@4 ≤ 5 μg/mL) | X (X = MPC@4 ≤ 5 μg/mL) | X (X = MPC@4 ≤ 5 μg/mL) | Y (Y = 5 μg/mL < MPC@4 ≤ 20 μg/mL) | Z (Z = MPC@4 > 20 μg/mL) |
| O=C([O-])c1ccc2c(c1C(=O)[O-])O[B-](O)(O)CC2.[Na+].[Na+].[Na+] [Compound 53, Trisodium; 4,4-dihydroxy-5-oxa-4-boranuidabicyclo[4.4.0]deca-1(6),7,9-triene-7,8-dicarboxylate] | X (X = MPC@1 ≤ 5 μg/mL) | X (X = MPC@1 ≤ 5 μg/mL) | X (X = MPC@1 ≤ 5 μg/mL) | X (X = MPC@1 ≤ 5 μg/mL) | > 7.00 | X (key: X = Ki ≤ 0.1 μM; Y = 0.1 μM < Ki ≤ 1 μM; Z = Ki > 1 μM) | X (X = Ki ≤ 0.1 μM) | X (X = Ki ≤ 0.1 μM) | X (X = Ki ≤ 0.1 μM) | > 7.00 | X (X = MPC@4 ≤ 5 μg/mL) | Y (Y = 5 μg/mL < MPC@4 ≤ 20 μg/mL) | Y (Y = 5 μg/mL < MPC@4 ≤ 20 μg/mL) | X (X = MPC@4 ≤ 5 μg/mL) | X (X = MPC@4 ≤ 5 μg/mL) | X (X = MPC@4 ≤ 5 μg/mL) | Y (Y = 5 μg/mL < MPC@4 ≤ 20 μg/mL) | Z (Z = MPC@4 > 20 μg/mL) |
| CON=Cc1ccc2c(c1C(=O)[O-])O[B-](O)(O)CC2.[Na+].[Na+] [Compound 55, Disodium; 4,4-dihydroxy-8-(methoxyiminomethyl)-5-oxa-4-boranuidabicyclo[4.4.0]deca-1(6),7,9-triene-7-carboxylate] | X (X = MPC@1 ≤ 5 μg/mL) | X (X = MPC@1 ≤ 5 μg/mL) | Z (Z = MPC@1 > 20 μg/mL) | Z (Z = MPC@1 > 20 μg/mL) | > 7.00 | X (key: X = Ki ≤ 0.1 μM; Y = 0.1 μM < Ki ≤ 1 μM; Z = Ki > 1 μM) | X (X = Ki ≤ 0.1 μM) | X (X = Ki ≤ 0.1 μM) | X (X = Ki ≤ 0.1 μM) | > 7.00 | X (X = MPC@4 ≤ 5 μg/mL) | X (X = MPC@4 ≤ 5 μg/mL) | X (X = MPC@4 ≤ 5 μg/mL) | X (X = MPC@4 ≤ 5 μg/mL) | X (X = MPC@4 ≤ 5 μg/mL) | X (X = MPC@4 ≤ 5 μg/mL) | X (X = MPC@4 ≤ 5 μg/mL) | Z (Z = MPC@4 > 20 μg/mL) |
| CCOc1ccc2c(c1C(=O)[O-])O[B-](O)(O)CC2.[Na+].[Na+] [Compound 57, Disodium; 8-ethoxy-4,4-dihydroxy-5-oxa-4-boranuidabicyclo[4.4.0]deca-1(6),7,9-triene-7-carboxylate] | X (X = MPC@1 ≤ 5 μg/mL) | X (X = MPC@1 ≤ 5 μg/mL) | X (X = MPC@1 ≤ 5 μg/mL) | X (X = MPC@1 ≤ 5 μg/mL) | > 7.00 | X (key: X = Ki ≤ 0.1 μM; Y = 0.1 μM < Ki ≤ 1 μM; Z = Ki > 1 μM) | X (X = Ki ≤ 0.1 μM) | X (X = Ki ≤ 0.1 μM) | X (X = Ki ≤ 0.1 μM) | > 7.00 | X (X = MPC@4 ≤ 5 μg/mL) | X (X = MPC@4 ≤ 5 μg/mL) | X (X = MPC@4 ≤ 5 μg/mL) | X (X = MPC@4 ≤ 5 μg/mL) | X (X = MPC@4 ≤ 5 μg/mL) | X (X = MPC@4 ≤ 5 μg/mL) | X (X = MPC@4 ≤ 5 μg/mL) | Y (Y = 5 μg/mL < MPC@4 ≤ 20 μg/mL) |
